Experimental data as given in patent publication US11312727B1, “Macrocyclic flu endonuclease inhibitors” (Janssen BioPharma, Inc., priority 2018, dated 2022).

What was measured:
[1] = in vitro; settings: human, CC50, uninfected A549 cells, CellTiter-Glo
[2] = tested on: Influenza strain A549 A/WSN/33 (H1N1); test: microbe, parasite or virus in culture; type: cell-based; settings: Influenza A virus, A549, 20 h, A549 cells, influenza A/WSN/33 (H1N1), 20 hours incubation; read-out: A549_A(H1N1) EC50

| Structure (SMILES) | CC50 [1] | EC50 [2] |
| --- | --- | --- |
| O=C1c2c(O)c(=O)ccn2N2CN1C1(/C=C/COc3c(F)cccc3[C@H]2c2ccccc2)CCC1 (single isomer, unassigned) [Compound 145A, (18′*R,E)-4′-fluoro-12′-hydroxy-18′-phenyl-6′H,18′H-spiro[cyclobutane-1,9′-[10,17]methanobenzo[b]pyrido[1,2-f][1]oxa[5,6,9]triazacyclotridecine]-11′,13′-dione] | > 0.1 µM | 0.0031 µM |
| O=C1c2c(O)c(=O)ccn2N2CN1C1(/C=C/COc3c(F)cccc3[C@@H]2c2ccccc2)CCC1 (single isomer, unassigned) [Compound 145B, (18′*S,E)-4′-fluoro-12′-hydroxy-18′-phenyl-6′H,18′H-spiro[cyclobutane-1,9′-[10,17]methanobenzo[b]pyrido[1,2-f][1]oxa[5,6,9]triazacyclotridecine]-11′,13′-dionene] | > 10 µM | 0.31 µM |
| O=C1c2c(O)c(=O)ccn2N2CN1C1(/C=C/COc3cccc4c3[C@@H]2c2ccccc2SC4)CCC1 (single isomer, unassigned) [Compound 147A, (17a′*R,*E)-12′-hydroxy-2′,17a′-dihydro-6′H-spiro[cyclobutane-1,9′-[3,4](epiprop[1]en[1]yl[3]ylidene)[10,17]methanobenzo[6,7]thiepino[4,5-c]pyrido[1,2-f][1]oxa[5,6,9]triazacyclotridecine]-11′,13′-dione] | > 10 µM | > 5 µM |
| O=C1c2c(O)c(=O)ccn2N2CN1C1(/C=C/COc3cccc4c3[C@H]2c2ccccc2SC4)CCC1 (single isomer, unassigned) [Compound 147B, (17a′*S,*E)-12′-hydroxy-2′,17a′-dihydro-6′H-spiro[cyclobutane-1,9′-[3,4](epiprop[1]en[1]yl[3]ylidene)[10,17]methanobenzo[6,7]thiepino[4,5-c]pyrido[1,2-f][1]oxa[5,6,9]triazacyclotridecine]-11′,13′-dione] | > 0.1 µM | 0.00033 µM |
| C[C@@H]1/C=C/COc2c(ccc(F)c2F)[C@@H](c2ccccc2)N2CN1C(=O)c1c(O)c(=O)ccn12 (single isomer, unassigned) [Compound 148AA, (9*R,18*R,*E)-3,4-difluoro-12-hydroxy-9-methyl-18-phenyl-6,9-dihydro-18H-10,17-methanobenzo[b]pyrido[1,2-f][1]oxa[5,6,9]triazacyclotridecine-11,13-dione] | > 0.05 µM | 0.0016 µM |
| C[C@@H]1/C=C/COc2c(ccc(F)c2F)[C@H](c2ccccc2)N2CN1C(=O)c1c(O)c(=O)ccn12 (single isomer, unassigned) [Compound 148BA, (9*R,18*S,*E)-3,4-difluoro-12-hydroxy-9-methyl-18-phenyl-6,9-dihydro-18H-10,17-methanobenzo[b]pyrido[1,2-f][1]oxa[5,6,9]triazacyclotridecine-11,13-dione] | > 10 µM | 2.6 µM |
| COC[C@H]1/C=C/COc2ccccc2[C@@H](c2ccccc2)N2CN1C(=O)c1c(O)c(=O)ccn12 (single isomer, unassigned) [Compound 150A, (9*R,18*R,*E)-12-hydroxy-9-(methoxymethyl)-18-phenyl-6,9-dihydro-18H-10,17-methanobenzo[b]pyrido[1,2-f][1]oxa[5,6,9]triazacyclotridecine-11,13-dione] | > 0.1 µM | 0.009 µM |
| COC[C@@H]1/C=C/COc2ccccc2[C@H](c2ccccc2)N2CN1C(=O)c1c(O)c(=O)ccn12 (single isomer, unassigned) [Compound 150B, (9*S,18*S,*E)-12-hydroxy-9-(methoxymethyl)-18-phenyl-6,9-dihydro-18H-10,17-methanobenzo[b]pyrido[1,2-f][1]oxa[5,6,9]triazacyclotridecine-11,13-dione] | > 10 µM | 3.26 µM |
